The values below come from ChEMBL document CHEMBL1201862, “PubChem BioAssay data set” (2004).

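Five compound concentrations were applied to cells in 96-well plates for 48 hours; endpoints were derived by simple linear interpolation of the resulting dose-response curve. Abbreviation: GI50, concentration required for 50% inhibition of growth.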 The source made the active and inactive calls. Rule as the data show it: active = GI50 up to about 1.1 µM and inactive = higher. Where only a bound is given, the exact number is not on record here.

Among the test systems are HOP-62; NCI-H226; SW-620; UACC-62; NCI-H460; MOLT-4; ACHN; NCI-H23; HCC 2998; OVCAR-5; CCRF-CEM; SNB-19; NCI-H522; KM12; MCF7; EKVX; SF-295; DU-145; A549; BT-549.
Test in all cases: NCI tumour cell line growth inhibition, 48 h

For `N#CC(C#N)=Cn1c(=S)[nH]c2ccccc21`, the GI50 with HOP-62, in the test with NCI-H226, in the test on SW-620, with UACC-62, with NCI-H460 and in the test on MOLT-4 was > 100 µM (inactive) each time. The GI50 with ACHN, in the test on NCI-H23, in the test on HCC 2998, in the test with OVCAR-5, in the test on CCRF-CEM and with SNB-19 was > 100 µM (inactive) each time. The GI50 was > 100 µM (inactive) in the test with NCI-H522; > 100 µM (inactive) with KM12; > 100 µM (inactive) in the test with MCF7; 78.3 µM (inactive) in the test on EKVX; > 100 µM (inactive) with SF-295; > 100 µM (inactive) in the test with DU-145. The GI50 in the test on A549 was > 100 µM (inactive).

On to `CCOC(C)O[C@H]1C(=O)OCC1(C)C` (stereo partly drawn), for which the GI50 with HOP-62 is > 100 µM (inactive); in the test on NCI-H226, > 100 µM (inactive); in the test with SW-620, > 100 µM (inactive); in the test with UACC-62, > 100 µM (inactive); in the test on NCI-H460 it was > 100 µM (inactive); in the test with MOLT-4, 34.9 µM (inactive). Also, the GI50 in the test on ACHN, in the test on NCI-H23, in the test with HCC 2998, in the test with OVCAR-5, in the test with CCRF-CEM and with SNB-19 was > 100 µM (inactive) each time. Moreover, the GI50 with KM12, in the test with MCF7, in the test with EKVX, in the test on SF-295, in the test with DU-145 and in the test on A549 was > 100 µM (inactive) throughout.

As to `CCCCCOc1ccc(/C=N\c2ccc(-c3ccc(/N=C\c4ccc(OCCCCC)cc4)c(OC)c3)cc2OC)cc1`, the GI50 in the test on HOP-62, in the test on NCI-H226, with SW-620, in the test on UACC-62, in the test with NCI-H460 and in the test with MOLT-4 was > 100 µM (inactive) throughout. Moreover, the GI50 in the test on NCI-H23, in the test on HCC 2998, with OVCAR-5, with CCRF-CEM, in the test on SNB-19 and in the test on NCI-H522 was > 100 µM (inactive) throughout. The GI50 in the test with KM12, in the test with MCF7, in the test on EKVX, in the test with SF-295 and in the test on A549 was > 100 µM (inactive) throughout.

As to `Cc1ccc(C(=O)N/N=C(\N=N\c2cccc(C)c2)c2ccc(N(CCC#N)CCC#N)cc2C)cc1`, the GI50 was > 100 µM (inactive) in the test with HOP-62; 55.2 µM (inactive) in the test with NCI-H226; 50.5 µM (inactive) in the test with SW-620; 57.1 µM (inactive) with UACC-62; 52.7 µM (inactive) in the test on NCI-H460; 38.9 µM (inactive) in the test with MOLT-4. For the same compound, the GI50 was > 100 µM (inactive) in the test with ACHN; > 100 µM (inactive) in the test with NCI-H23; > 100 µM (inactive) with HCC 2998; > 100 µM (inactive) in the test on OVCAR-5; 59.8 µM (inactive) in the test on CCRF-CEM; > 100 µM (inactive) in the test on SNB-19. Further, the GI50 was 31.8 µM (inactive) with KM12; 67.5 µM (inactive) in the test with MCF7; 95.3 µM (inactive) in the test on EKVX; > 100 µM (inactive) in the test with SF-295; 73.1 µM (inactive) in the test with DU-145; > 100 µM (inactive) in the test with A549.

In the case of `O=P1(O)C=CC2(CCCC2)O1`, the GI50 in the test with HOP-62, with SW-620, in the test on UACC-62, with NCI-H460, with ACHN and with NCI-H23 was > 100 µM (inactive) throughout. Further, the GI50 in the test on HCC 2998, in the test with OVCAR-5, in the test on SNB-19, in the test with NCI-H522, in the test with KM12 and in the test with MCF7 was > 100 µM (inactive) in each case. In addition, the GI50 in the test with EKVX, in the test on SF-295, in the test with DU-145 and with A549 was > 100 µM (inactive) throughout.

As to `C=C1CN=C(Nc2ccc(Cl)cc2)S1`, the GI50 is > 100 µM (inactive) with HOP-62; > 100 µM (inactive) in the test on SW-620; > 100 µM (inactive) with NCI-H460; > 10 µM (inactive) in the test on MOLT-4; > 100 µM (inactive) in the test on ACHN; > 100 µM (inactive) in the test on NCI-H23. The GI50 in the test with HCC 2998 was > 100 µM (inactive); in the test on OVCAR-5, > 100 µM (inactive); in the test on CCRF-CEM, 71 µM (inactive); with SNB-19, > 100 µM (inactive); with KM12 it was 66.7 µM (inactive); in the test on MCF7, 45.6 µM (inactive). The GI50 in the test on EKVX, in the test with SF-295, in the test with DU-145 and in the test with A549 was > 100 µM (inactive) throughout.

On to `O=C1OC(=O)C2=C1C(c1cccs1)C=C(c1cccnc1)N2c1ccncc1` (stereo not drawn), for which the GI50 in the test on HOP-62 is 15.8 µM (inactive); in the test with NCI-H226 it was 21.6 µM (inactive); in the test on SW-620, 20.7 µM (inactive); in the test on UACC-62, 19.9 µM (inactive); in the test on NCI-H460, 17.3 µM (inactive); in the test with MOLT-4 it was 23.1 µM (inactive). For the same compound, the GI50 was 16.5 µM (inactive) in the test with ACHN; 17.6 µM (inactive) with NCI-H23; 14.1 µM (inactive) with HCC 2998; 12.2 µM (inactive) with OVCAR-5; 20.1 µM (inactive) with CCRF-CEM; 18 µM (inactive) in the test with SNB-19. Moreover, the GI50 in the test on NCI-H522 is 13.8 µM (inactive); in the test with KM12, 13.4 µM (inactive); in the test with BT-549, 15.5 µM (inactive); in the test with EKVX it was 14 µM (inactive); in the test on SF-295, 20.9 µM (inactive); in the test on DU-145 it was 16.6 µM (inactive). The GI50 in the test on A549 is 17.6 µM (inactive).

With `COC1OC(COC(=O)c2cc(O)c(O)c(O)c2)C(OC(=O)c2cc(O)c(O)c(O)c2)C(OC(=O)c2cc(O)c(O)c(O)c2)C1OC(=O)c1cc(O)c(O)c(O)c1` (stereo not drawn), the GI50 in the test with HOP-62 was 7.33 µM (inactive); with NCI-H226, 4.48 µM (inactive); with SW-620 it was 31.6 µM (inactive); in the test with UACC-62, 14.4 µM (inactive); in the test on NCI-H460 it was 9.2 µM (inactive); in the test on MOLT-4, 11.8 µM (inactive). For the same compound, the GI50 is 19 µM (inactive) in the test with ACHN; 78.5 µM (inactive) in the test with NCI-H23; 58.2 µM (inactive) in the test on HCC 2998; 57.5 µM (inactive) with OVCAR-5; 12.8 µM (inactive) in the test on CCRF-CEM; 43.4 µM (inactive) in the test on SNB-19. For the same compound, the GI50 in the test with NCI-H522 is 15 µM (inactive); with KM12, 22.4 µM (inactive); in the test with MCF7, > 100 µM (inactive); with EKVX, 25.9 µM (inactive); in the test on SF-295, 34.9 µM (inactive); in the test on DU-145, 69.5 µM (inactive). The GI50 with A549 was 33 µM (inactive).

As to `CCOC(=O)C(NC(=O)Nc1ccccc1F)(OC)C(F)(F)F` (stereo not drawn), the GI50 in the test on SW-620, in the test with MOLT-4, in the test with ACHN, in the test on NCI-H23, in the test with HCC 2998 and in the test with OVCAR-5 was > 100 µM (inactive) each time. The GI50 in the test on CCRF-CEM, in the test on SNB-19, with BT-549, in the test on EKVX and with A549 was > 100 µM (inactive) each time.

Take `NC(=O)c1c(NC=O)ncn1C1OCC(O)C(O)C1O` (stereo not drawn): the GI50 in the test on HOP-62, in the test with NCI-H226, with SW-620, with UACC-62, in the test on NCI-H460 and in the test on MOLT-4 was > 100 µM (inactive) in each case. For the same compound, the GI50 in the test with ACHN, in the test on NCI-H23, with OVCAR-5, in the test on CCRF-CEM, with SNB-19 and with NCI-H522 was > 100 µM (inactive) each time. The GI50 with KM12, in the test on BT-549, in the test on EKVX, in the test with SF-295, in the test on DU-145 and in the test on A549 was > 100 µM (inactive) in each case.

With `CCCCCCCCCC[C@@H](O)[C@@H]1CC[C@@H]([C@@H]2CC[C@@H]([C@@H](O)CCCCCCCCCCC(O)CC3=CC(C)OC3=O)O2)O1` (stereo partly drawn), the GI50 with HOP-62 is 0.655 µM (active); in the test with NCI-H226, 0.173 µM (active); in the test with SW-620, 8.2 µM (inactive); in the test with UACC-62, 3.79 µM (inactive); in the test with NCI-H460, 1.28 µM (inactive); in the test with MOLT-4, 1.26 µM (inactive). Also, the GI50 in the test on ACHN was 0.931 µM (active); in the test with HCC 2998, 4.84 µM (inactive); in the test on OVCAR-5, 0.128 µM (active); in the test on CCRF-CEM it was 2.47 µM (inactive); in the test with NCI-H522, 0.177 µM (active); in the test on KM12, 3.53 µM (inactive). Further, the GI50 with MCF7 was 1.36 µM (inactive); in the test with EKVX, 3.03 µM (inactive); in the test on SF-295, 2.72 µM (inactive); in the test on DU-145 it was 3.98 µM (inactive); in the test on A549, 2.53 µM (inactive).
